Test results published in patent US10959428B2, “Hematophagous arthropod repellent composition” (WOOJUNG BIO INC., priority 2017, dated 2021).
“And” between values parts separate entries of the source, which are not always exact repeats. Equal values may be shown once.

Legend:
[1] = test system: adult Aedes aegypti; assay: cage-in-arm test, complete protection time (CPT); assay type: in vivo; settings: 4 mg, adult Aedes aegypti
Method: For determining the repellency of prepared samples against adults of Aedes aegypti and Aedes albopicus, a cage-in-arm test was carried out as a method for exposure to skin. Namely, on a back of the hand of a rubber glove, a hole with diameter of 5 cm was created, and, onto an exposed back of the testees, various samples prepared by dissolution in 100 μl of ethanol were applied, and then the skin test was carried out. The testees were healthy males between the ages of 21 and 40. The control group was treated with 100 μl of ethanol only. Female adults (5 to 8 day old) of Aedes aegypti or Aedes albopicus (250 to 300 mosquitoes) were added to a cage for growing adult mosquitoes (25×25×25 cm^3), and adapted to the indoor conditions for 12 to 24 hours before starting the test. When the upper arm of the control group is exposed for 1 minute and at least 6 mosquitoes sit on the upper arm or show a bloodsucking behavior, it was determined as sufficient biting pressure, and then the repellency test was carried out. […] The time period between the time point with initial treatment of a material and the time point at which 2 or more mosquitoes continuously sit on the treatment area or show the bloodsucking behavior was defined as complete protection time (CPT). Furthermore, for obtaining the repellency with regard to concentration, exposure was made for a constant time period regardless of the above and the repellency was calculated by using the following formula. Accordingly, the effect was compared among each test samples. All tests were carried out in triplicate. Repellency %=(Number of insects showing bloodsucking behavior in non-treatment group−Number of insects showing bloodsucking behavior in treatment group)/Number of insects showing bloodsucking behavior in non-treatment group)×100 <Tick Repellency>

[2] = test system: adult Aedes albopicus; assay: cage-in-arm test, repellency and CPT; assay type: in vivo, Aedes albopictus
Method: For determining the repellency of prepared samples against adults of Aedes aegypti and Aedes albopicus, a cage-in-arm test was carried out as a method for exposure to skin. Namely, on a back of the hand of a rubber glove, a hole with diameter of 5 cm was created, and, onto an exposed back of the testees, various samples prepared by dissolution in 100 μl of ethanol were applied, and then the skin test was carried out. The testees were healthy males between the ages of 21 and 40. The control group was treated with 100 μl of ethanol only. Female adults (5 to 8 day old) of Aedes aegypti or Aedes albopicus (250 to 300 mosquitoes) were added to a cage for growing adult mosquitoes (25×25×25 cm^3), and adapted to the indoor conditions for 12 to 24 hours before starting the test. When the upper arm of the control group is exposed for 1 minute and at least 6 mosquitoes sit on the upper arm or show a bloodsucking behavior, it was determined as sufficient biting pressure, and then the repellency test was carried out. With an interval of 30 minutes, by exposing the upper arm, which has been treated with the above composition, for 3 minutes, and, when the adult mosquito sits on the arm for 2 seconds or longer or at least two mosquitoes showing the behavior of mouth injection to skin or direct bloodsucking are found from consecutive tests, the test was stopped. The time period between the time point with initial treatment of a material and the time point at which 2 or more mosquitoes continuously sit on the treatment area or show the bloodsucking behavior was defined as complete protection time (CPT). Furthermore, for obtaining the repellency with regard to concentration, exposure was made for a constant time period regardless of the above and the repellency was calculated by using the following formula. Accordingly, the effect was compared among each test samples. All tests were carried out in triplicate. Repellency %=(Number of insects showing bloodsucking behavior in non-treatment group−Number of insects showing bloodsucking behavior in treatment group)/Number of insects showing bloodsucking behavior in non-treatment group)×100 <Tick Repellency>
For reference, comparison of the mosquito repellency was made by using clove oil as a natural positive control group and DEET as a synthetic positive control group.
To determine the repellency of plant essential oil alone against adult Aedes albopicus and nymphs of Haemaphysalis longicornis, the cage-in-arm test and finger-tip method were carried out, in the same manner as Examples 1-2 and 1-3, with each of 16 kinds of plant essential oil of Table 4.

[3] = test system: nymphs of Haemaphysalis longicornis; assay: finger-tip method, tick repellency; assay type: in vivo
Method: By having the outdoor group of Haemaphysalis longicornis collected from the region around Bongdam-Myon, Hwasung-Shi, Kunggi-Do, South Korea as a subject, the repellency against ticks was determined by employing a finger-tip method. In 50 μl of ethanol, each sample was dissolved in an amount of 2 mg, and then treated on the second nodule of a third finger. […] All tests were carried out in triplicate. Repellency %=(Number of insects showing bloodsucking behavior in non-treatment group−Number of insects showing bloodsucking behavior in treatment group)/Number of insects showing bloodsucking behavior in non-treatment group)×100 […]

## COc1ccc(C=O)cc1OC [3,4-Dimethoxybenzaldehyde, 3,4-dimethoxybenzaldehyde]
[1]
  CPT: 70 min
[1]; listed as 3,4-demethoxybenzaldehyde
  CPT: 70 min
[2]; 0.03 mg/cm^2, 10 minutes
  Repellency (mean ± SE, %): 100 ± 0%
[2]; 0.03 mg/cm^2, 30 minutes
  Repellency (mean ± SE, %): 75 ± 7.1%
[2]; 0.03 mg/cm^2, 60 minutes
  Repellency (mean ± SE, %): 54 ± 4.3%
[2]; 0.10 mg/cm^2, 10 minutes
  Repellency (mean ± SE, %): 100 ± 0%
[2]; 0.10 mg/cm^2, 30 minutes
  Repellency (mean ± SE, %): 93 ± 4.3%
[2]; 0.10 mg/cm^2, 60 minutes
  Repellency (mean ± SE, %): 90 ± 4.1%
[2]; 0.10 mg/cm^2, 90 minutes
  Repellency (mean ± SE, %): 83 ± 8.8%
[2]; 0.10 mg/cm^2, 120 minutes
  Repellency (mean ± SE, %): 58 ± 5.5%
[2]; 0.20 mg/cm^2, 10 minutes
  Repellency (mean ± SE, %): 100 ± 0%
[2]; 0.20 mg/cm^2, 30 minutes
  Repellency (mean ± SE, %): 100 ± 0%
[2]; 0.20 mg/cm^2, 60 minutes
  Repellency (mean ± SE, %): 99 ± 2.3%
[2]; 0.20 mg/cm^2, 90 minutes
  Repellency (mean ± SE, %): 94 ± 4.6%
[2]; 0.20 mg/cm^2, 120 minutes
  Repellency (mean ± SE, %): 91 ± 1.7%
[2]; 0.20 mg/cm^2, 150 minutes
  Repellency (mean ± SE, %): 83 ± 2.6%
[2]; 0.20 mg/cm^2, 180 minutes
  Repellency (mean ± SE, %): 65 ± 6.0%
[2]; 0.25 mg/cm^2, 10 minutes
  Repellency (mean ± SE, %): 100 ± 0%
[2]; 0.25 mg/cm^2, 30 minutes
  Repellency (mean ± SE, %): 100 ± 0%
[2]; 0.25 mg/cm^2, 60 minutes
  Repellency (mean ± SE, %): 100 ± 0%
[2]; 0.25 mg/cm^2, 90 minutes
  Repellency (mean ± SE, %): 100 ± 0%
[2]; 0.25 mg/cm^2, 120 minutes
  Repellency (mean ± SE, %): 100 ± 0%
[2]; 0.25 mg/cm^2, 150 minutes
  Repellency (mean ± SE, %): 95 ± 3.2%
[2]; 0.25 mg/cm^2, 180 minutes
  Repellency (mean ± SE, %): 58 ± 4.4%
[2]; 4 mg, adult Aedes albopicus
  CPT: 50 min
[3]; 0.01 mg/cm^2, 15 min.
  Repellency (mean ± SE, %): 100 ± 0%
[3]; 0.01 mg/cm^2, 30 min.
  Repellency (mean ± SE, %): 100 ± 0%
[3]; 0.01 mg/cm^2, 60 min.
  Repellency (mean ± SE, %): 98 ± 2.5%
[3]; 0.01 mg/cm^2, 90 min.
  Repellency (mean ± SE, %): 98 ± 2.5%
[3]; 0.01 mg/cm^2, 120 min.
  Repellency (mean ± SE, %): 90 ± 5.8%
[3]; 0.01 mg/cm^2, 150 min.
  Repellency (mean ± SE, %): 95 ± 2.9%
[3]; 0.01 mg/cm^2, 180 min.
  Repellency (mean ± SE, %): 95 ± 2.9%
[3]; 0.01 mg/cm^2, 210 min.
  Repellency (mean ± SE, %): 73 ± 10.3%
[3]; 0.01 mg/cm^2, 240 min.
  Repellency (mean ± SE, %): 65% and 65 ± 2.9%
[3]; 0.01 mg/cm^2, 270 min.
  Repellency (mean ± SE, %): 43 ± 4.8%
[3]; 0.02 mg/cm^2, 15 min.
  Repellency (mean ± SE, %): 100 ± 0%
[3]; 0.02 mg/cm^2, 30 min.
  Repellency (mean ± SE, %): 100 ± 0%
[3]; 0.02 mg/cm^2, 60 min.
  Repellency (mean ± SE, %): 100 ± 0%
[3]; 0.02 mg/cm^2, 90 min.
  Repellency (mean ± SE, %): 98 ± 2.5%
[3]; 0.02 mg/cm^2, 120 min.
  Repellency (mean ± SE, %): 98 ± 2.5%
[3]; 0.02 mg/cm^2, 150 min.
  Repellency (mean ± SE, %): 100 ± 0%
[3]; 0.02 mg/cm^2, 180 min.
  Repellency (mean ± SE, %): 98 ± 2.5%
[3]; 0.02 mg/cm^2, 210 min.
  Repellency (mean ± SE, %): 95 ± 5.0%
[3]; 0.02 mg/cm^2, 240 min.
  Repellency (mean ± SE, %): 85 ± 2.9%
[3]; 0.02 mg/cm^2, 270 min.
  Repellency (mean ± SE, %): 63 ± 4.8%
[3]; 0.02 mg/cm^2, 300 min.
  Repellency (mean ± SE, %): 48 ± 2.5%
[3]; 0.02 mg/cm^2 or higher, 4 hours after the treatment
  repellency: ≥ 78%
[3]; 0.05 mg/cm^2, 15 min.
  Repellency (mean ± SE, %): 100 ± 0%
[3]; 0.05 mg/cm^2, 30 min.
  Repellency (mean ± SE, %): 100 ± 0%
[3]; 0.05 mg/cm^2, 60 min.
  Repellency (mean ± SE, %): 100 ± 0%
[3]; 0.05 mg/cm^2, 90 min.
  Repellency (mean ± SE, %): 98 ± 2.5%
[3]; 0.05 mg/cm^2, 120 min.
  Repellency (mean ± SE, %): 98 ± 2.5%
[3]; 0.05 mg/cm^2, 150 min.
  Repellency (mean ± SE, %): 85 ± 2.9%
[3]; 0.05 mg/cm^2, 180 min.
  Repellency (mean ± SE, %): 83 ± 6.3%
[3]; 0.05 mg/cm^2, 210 min.
  Repellency (mean ± SE, %): 85 ± 6.5%
[3]; 0.05 mg/cm^2, 240 min.
  Repellency (mean ± SE, %): 78 ± 4.8%
[3]; 0.05 mg/cm^2, 270 min.
  Repellency (mean ± SE, %): 70 ± 4.1%
[3]; 0.05 mg/cm^2, 300 min.
  Repellency (mean ± SE, %): 50 ± 4.1%
[3]; 0.09 mg/cm^2, 15 min.
  Repellency (mean ± SE, %): 100 ± 0%
[3]; 0.09 mg/cm^2, 30 min.
  Repellency (mean ± SE, %): 100 ± 0%
[3]; 0.09 mg/cm^2, 60 min.
  Repellency (mean ± SE, %): 100 ± 0%
[3]; 0.09 mg/cm^2, 90 min.
  Repellency (mean ± SE, %): 98 ± 2.5%
[3]; 0.09 mg/cm^2, 120 min.
  Repellency (mean ± SE, %): 100 ± 0%
[3]; 0.09 mg/cm^2, 150 min.
  Repellency (mean ± SE, %): 100 ± 0%
[3]; 0.09 mg/cm^2, 180 min.
  Repellency (mean ± SE, %): 100 ± 0%
[3]; 0.09 mg/cm^2, 210 min.
  Repellency (mean ± SE, %): 98 ± 2.5%
[3]; 0.09 mg/cm^2, 240 min.
  Repellency (mean ± SE, %): 83 ± 2.5%
[3]; 0.09 mg/cm^2, 270 min.
  Repellency (mean ± SE, %): 73 ± 6.3%
[3]; 0.09 mg/cm^2, 300 min.
  Repellency (mean ± SE, %): 65 ± 2.9%

## COc1cc(C=O)ccc1OCc1ccccc1 [4-Benzyloxy-3-methoxybenzaldehyde, 4-benzyloxy-3-methoxybenzaldehyde]
[1]
  CPT: 22 min
